Measured values published in US20240150290A1, “HETEROCYCLIC P2Y14 RECEPTOR ANTAGONISTS” (priority 2021, published 2024).
Converted amounts (≈) assume the structure as drawn. Read-outs that look alike come from different tables or passages of the source.

What was measured:
hP2Y14R = molecular target: T1, hP2Y14R (Homo sapiens, UniProt Q15391); assay: Inhibition of fluorescent antagonist binding in whole hP2Y14R-expressing CHO cells (flow cytometry)
T1 construct: expressed in transfected cells; host or cells: CHO cells
T1 sequence (Q15391 1-338): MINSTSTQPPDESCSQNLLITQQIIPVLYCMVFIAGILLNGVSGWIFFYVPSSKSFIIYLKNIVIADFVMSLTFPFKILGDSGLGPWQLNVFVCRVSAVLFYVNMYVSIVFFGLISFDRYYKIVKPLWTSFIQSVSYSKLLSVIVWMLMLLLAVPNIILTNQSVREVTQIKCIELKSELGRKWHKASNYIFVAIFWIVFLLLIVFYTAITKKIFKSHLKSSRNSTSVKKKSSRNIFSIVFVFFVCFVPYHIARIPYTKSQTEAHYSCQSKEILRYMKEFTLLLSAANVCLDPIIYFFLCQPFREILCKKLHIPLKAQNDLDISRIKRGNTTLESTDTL

[1] = tested on: CCI-induced mechano-allodynia; assay: Chronic constriction injury (CCI) mouse model of neuropathic pain; details: 10 μmol/kg, i.p., day 7 post-injury
mP2Y14R = molecular target: T2, mP2Y14R (Mus musculus, UniProt Q9ESG6); assay: cell-based; details: for affinity at the mP2Y14R vs the human homologue: comparison of species, in words
T2 sequence (Q9ESG6 1-338): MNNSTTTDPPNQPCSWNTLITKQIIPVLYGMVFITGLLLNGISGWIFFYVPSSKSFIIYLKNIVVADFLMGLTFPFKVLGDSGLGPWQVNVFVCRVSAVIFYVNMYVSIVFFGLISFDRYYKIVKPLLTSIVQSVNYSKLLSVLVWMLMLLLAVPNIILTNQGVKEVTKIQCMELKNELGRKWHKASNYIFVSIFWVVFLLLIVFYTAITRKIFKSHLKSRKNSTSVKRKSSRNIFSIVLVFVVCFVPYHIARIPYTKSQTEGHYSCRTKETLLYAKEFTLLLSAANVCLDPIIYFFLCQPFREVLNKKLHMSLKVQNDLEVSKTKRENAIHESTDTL
Text: Desirably, receptor affinity is maintained across species, facilitating performance in in vivo preclinical testing in small animals, with the mouse being the most commonly used species in initial evaluation.

hERG ion channel = hERG ion channel (Homo sapiens, UniProt Q12809); assay: hERG ion channel block, patch clamp assay
[2] = tested on: allergen-induced airway inflammation; assay: Ovalbumin/Aspergillus mouse asthma model (BALF leukocytes); details: 20 μmol/kg; for eosinophil counts in the BALF: i.p. prior to allergen challenge, two days post-challenge
PLE = assay: Esterase cleavage of prodrugs in the presence of PLE; type: in vitro ADME; details: 37° C.; for Percent cleavage at 72 h: pH 7.3, PLE
[3] = Aqueous solubility, pION method
[4] = HPLC-based lipophilicity (Log D7.4); details: for chromatographic logD: pH 7.4
[5] = Table 1, fluorescent antagonist 2, hP2Y14R-CHO cells, 3-4 determinations, read-out: IC50, hP2Y14R (μM, mean ± SEM)
[6] = read-out: mP2Y14R, IC50, Table 2, tracer 2 (20 nM, 45 min), HEK293 cells
[7] = Table 2, whole hP2Y14R-CHO cells, 20 nM fluorescent antagonist 3, mean+SEM, n = 3-6, read-out: IC50
[8] = read-out: mP2Y14R, IC50, Table 6, whole mP2Y14R-HEK cells, 200 nM of 3, mean ± SEM, n = 3-6
[9] = Table 6, fluorescent hP2Y14R antagonist (3), read-out: hP2Y14R, IC50

Chain of hERG ion channel (Q12809 whole entry): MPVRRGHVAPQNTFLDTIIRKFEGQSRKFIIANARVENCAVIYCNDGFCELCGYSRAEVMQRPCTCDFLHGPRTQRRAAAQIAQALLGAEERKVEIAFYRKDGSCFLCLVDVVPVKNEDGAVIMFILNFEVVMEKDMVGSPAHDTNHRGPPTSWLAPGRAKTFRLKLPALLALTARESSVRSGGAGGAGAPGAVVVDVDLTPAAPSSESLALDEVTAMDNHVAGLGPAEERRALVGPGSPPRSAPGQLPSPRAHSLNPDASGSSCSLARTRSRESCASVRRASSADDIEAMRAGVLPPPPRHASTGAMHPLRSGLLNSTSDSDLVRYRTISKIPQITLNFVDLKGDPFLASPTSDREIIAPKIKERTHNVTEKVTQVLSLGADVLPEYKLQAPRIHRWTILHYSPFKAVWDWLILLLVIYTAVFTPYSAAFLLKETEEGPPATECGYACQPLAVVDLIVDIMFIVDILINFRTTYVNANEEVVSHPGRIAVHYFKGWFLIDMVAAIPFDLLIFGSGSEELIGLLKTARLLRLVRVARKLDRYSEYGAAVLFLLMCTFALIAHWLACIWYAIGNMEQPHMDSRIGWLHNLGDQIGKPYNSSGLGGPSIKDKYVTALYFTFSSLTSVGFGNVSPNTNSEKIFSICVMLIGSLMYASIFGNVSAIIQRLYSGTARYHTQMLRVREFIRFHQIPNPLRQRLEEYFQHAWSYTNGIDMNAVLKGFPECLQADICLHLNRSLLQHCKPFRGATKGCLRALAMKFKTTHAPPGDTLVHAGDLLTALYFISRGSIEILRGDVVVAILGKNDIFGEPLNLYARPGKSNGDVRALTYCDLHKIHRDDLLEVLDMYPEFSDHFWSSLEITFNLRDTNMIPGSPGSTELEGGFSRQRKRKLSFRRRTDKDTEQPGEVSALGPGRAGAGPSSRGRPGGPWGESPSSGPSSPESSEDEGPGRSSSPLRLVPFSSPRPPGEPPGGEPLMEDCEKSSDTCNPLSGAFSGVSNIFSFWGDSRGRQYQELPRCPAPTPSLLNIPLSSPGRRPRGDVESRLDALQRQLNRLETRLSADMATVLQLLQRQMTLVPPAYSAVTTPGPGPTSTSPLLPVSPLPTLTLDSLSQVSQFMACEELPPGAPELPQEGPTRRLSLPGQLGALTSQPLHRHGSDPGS

NCCCNC(=O)c1ccc(-c2cc(C(=O)O)cc(-n3cc(-c4ccc(C(F)(F)F)cc4)nn3)c2)cc1 [Compound 14, 4′-((3-Aminopropyl)carbamoyl)-5-(4-(4-(trifluoromethyl)phenyl)-1H-1,2,3-triazol-1-yl)-[1,1′-biphenyl]-3-carboxylic acid]
IC50 (hP2Y14R; [5]): 0.588 ± 0.043 µM | reversal of mechano-allodynia (figure legend) [1]: reversal of established mechano-allodynia

NCC#Cc1ccc(-c2cc(C(=O)O)cc(-n3cc(-c4ccc(C(F)(F)F)cc4)nn3)c2)cc1 [Compound 19, 4′-(3-Aminoprop-1-yn-1-yl)-5-(4-(4-(trifluoromethyl)phenyl)-1H-1,2,3-triazol-1-yl)-[1,1′-biphenyl]-3-carboxylic acid]
affinity at the mP2Y14R vs the human homologue (mP2Y14R): nearly the same affinity in the two species | IC50 (mP2Y14R; [6]): 375 ± 175 nM | IC50 (hP2Y14R; [5]): 0.308 ± 0.063 µM

CC(C)(C)OC(=O)NCCCc1ccc(-c2cc(C(=O)O)cc(-n3cc(-c4ccc(C(F)(F)F)cc4)nn3)c2)cc1 [Compound 20, 4′-(3-((tert-Butoxycarbonyl)amino)propyl)-5-(4-(4-(trifluoromethyl)phenyl)-1H-1,2,3-triazol-1-yl)-[1,1′-biphenyl]-3-carboxylic acid]
EC50 (hERG ion channel): 18 µM

O=C(O)c1cc(-c2ccc(-c3cc(CO)on3)cc2)cc(-n2cc(-c3ccc(C(F)(F)F)cc3)nn2)c1 [Compound 29, 4′-(5-(Hydroxymethyl)isoxazol-3-yl)-5-(4-(4-(trifluoromethyl)phenyl)-1H-1,2,3-triazol-1-yl)-[1,1′-biphenyl]-3-carboxylic acid]
affinity at the mP2Y14R vs the human homologue (mP2Y14R): slightly enhanced affinity | IC50 (mP2Y14R; [6]): 184 ± 24 nM | IC50 (hP2Y14R; Table 2, tracer 2 (20 nM, 45 min), CHO cells, read-out: hP2Y14R, IC50): 0.296 ± 0.013 µM

CN(C)C(=O)COC(=O)c1cc(-c2ccc(C3CCNCC3)cc2)cc(-n2cc(-c3ccc(C(F)(F)F)cc3)nn2)c1 [Compound 37a, 2-(Dimethylamino)-2-oxoethyl 4′-(piperidin-4-yl)-5-(4-(4-(trifluoromethyl)phenyl)-1H-1,2,3-triazol-1-yl)-[1,1′-biphenyl]-3-carboxylate]
lymphocyte count in the BALF ([2]; i.p.): trended higher than in vehicle control | t1/2 (min, mean ± SEM) for esterase cleavage (PLE; pH 7.3, aqueous medium, PLE): most rapidly cleaved

CN(C)C(=O)COC(=O)c1cc(-c2ccc(-c3cc(CO)on3)cc2)c2ccc(-c3ccc(C(F)(F)F)cc3)cc2c1 [Compound 37b, 2-(Dimethylamino)-2-oxoethyl 4-(4-(5-(hydroxymethyl)isoxazol-3-yl)phenyl)-7-(4-(trifluoromethyl)phenyl)-2-naphthoate]
eosinophil counts in the BALF [2]: significantly reduced eosinophils to a greater extent than the parent antagonists | Percent cleavage at 72 h (PLE): 32.6 ± 0.9%

CC(=O)N1CCC(c2ccc(-c3cc(C(=O)OCC(=O)N(C)C)cc4cc(-c5ccc(C(F)(F)F)cc5)ccc34)cc2)CC1 [Compound 37c, 2-(Dimethylamino)-2-oxoethyl 4-(4-(1-acetylpiperidin-4-yl)phenyl)-7-(4-(trifluoromethyl)phenyl)-2-naphthoate]
eosinophil counts in the BALF [2]: significantly reduced eosinophils to a greater extent than the parent antagonists | Percent cleavage at 72 h (PLE): 27.2 ± 0.3%

O=C(O)c1cc(-c2ccc([C@@H]3C[C@@H]4C[C@H]3CN4)cc2)c2ccc(-c3ccc(C(F)(F)F)cc3)cc2c1 [Compound 115, 4-(4-((1R,4R,5R)-2-Azabicyclo[2.2.1]heptan-5-yl)phenyl)-7-(4-(trifluoromethyl)phenyl)-2-naphthoic acid]
IC50 (hP2Y14R; [7]): 0.00862 ± 0.00211 µM | IC50 (hERG ion channel): > 30000 nM

O=C(O)c1cc(-c2ccc([C@@H]3C[C@H]4CN[C@@H]3C4)cc2)c2ccc(-c3ccc(C(F)(F)F)cc3)cc2c1 [Compound 116, 4-(4-((1R,4R,6S)-2-Azabicyclo[2.2.1]heptan-6-yl)phenyl)-7-(4-(trifluoromethyl)phenyl)-2-naphthoic acid]
IC50 (hP2Y14R; [7]): 0.0098 ± 0.0003 µM | Solubility (ug/mL) pH 4 [3]: 1.45 ± 0.05 ug/mL | Solubility (ug/mL) pH 7.4 [3]: 0.40 ± 0.13 ug/mL | IC50 (hERG ion channel): > 30000 nM | chromatographic logD [4]: 2.11 ± 0.06

CC(=O)N1C[C@H]2C[C@@H]1C[C@@H]2c1ccc(-c2cc(C(=O)O)cc3cc(-c4ccc(C(F)(F)F)cc4)ccc23)cc1 [Compound 118, 4-(4-((1S,4S,5S)-2-Acetyl-2-azabicyclo[2.2.1]heptan-5-yl)phenyl)-7-(4-(trifluoromethyl)phenyl)-2-naphthoic acid]
IC50 (mP2Y14R; [8]): 102 ± 39 nM | IC50 (hP2Y14R; [9]): 0.107 ± 0.013 µM | Solubility (ug/mL) pH 7.4 [3]: 1.86 ± 0.05 ug/mL | chromatographic logD [4]: 0.921 ± 0.034

O=C(O)c1cc(-c2ccc([C@@H]3C[C@@H]4C[C@H]3C(=O)N4)cc2)c2ccc(-c3ccc(C(F)(F)F)cc3)cc2c1 [Compound 120, 4-(4-((1R,4R,5R)-3-Oxo-2-azabicyclo[2.2.1]heptan-5-yl)phenyl)-7-(4-(trifluoromethyl)phenyl)-2-naphthoic acid]
IC50 (mP2Y14R; [8]): 26.2 ± 10.7 nM | IC50 (hP2Y14R; [9]): 0.0395 ± 0.0098 µM | Solubility (ug/mL) pH 4 [3]: 0.31 ± 0.14 ug/mL | Solubility (ug/mL) pH 7.4 [3]: 3.42 ± 0.46 ug/mL | EC50 (hERG ion channel; read-out: (EC50), μM for stimulation of hERG channel activity, patch clamp, Table 8): 18.1 µM

O=C(O)c1cc(-c2ccc([C@]3(O)[C@@H]4CC[C@H]3CNC4)cc2)c2ccc(-c3ccc(C(F)(F)F)cc3)cc2c1 [Compound 131, 4-(4-((1R,5S,8r)-8-Hydroxy-3-azabicyclo[3.2.1]octan-8-yl)phenyl)-7-(4-(trifluoromethyl)phenyl)-2-naphthoic acid]
IC50 (mP2Y14R): 15.5 ± 3.3 nM | IC50 (hP2Y14R): 0.0213 ± 0.0011 µM | solubility ([3]; pH 4, aqueous buffer): 2.32 ± 0.25 µg/mL (≈ 4.48 µM) | solubility ([3]; pH 7.4, aqueous buffer): 0.54 ± 0.09 µg/mL (≈ 1.04 µM) | IC50 (hERG ion channel): > 30000 nM | chromatographic logD [4]: 1.2 ± 0.01

N[C@@H]1C[C@H](CO)[C@@H](c2ccc(-c3cc(C(=O)O)cc4cc(-c5ccc(C(F)(F)F)cc5)ccc34)cc2)C1 [Compound 134, 4-(4-((1S,2S,4S)-4-Amino-2-(hydroxymethyl)cyclopentyl)phenyl)-7-(4-(trifluoromethyl)phenyl)-2-naphthoic acid]
IC50 (mP2Y14R; [8]): 17.9 ± 2.6 nM | IC50 (hP2Y14R; [9]): 0.0108 ± 0.0021 µM | IC50 (hERG ion channel): > 30000 nM

N[C@H]1C[C@@H](CO)[C@H](c2ccc(-c3cc(C(=O)O)cc4cc(-c5ccc(C(F)(F)F)cc5)ccc34)cc2)C1 [Compound 135, 4-(4-((1R,2R,4R)-4-Amino-2-(hydroxymethyl)cyclopentyl)phenyl)-7-(4-(trifluoromethyl)phenyl)-2-naphthoic acid]
IC50 (hP2Y14R; [7]): 0.0126 ± 0.0019 µM | Solubility (ug/mL) pH 4 [3]: 4.97 ± 0.11 ug/mL | Solubility (ug/mL) pH 7.4 [3]: 0.66 ± 0.02 ug/mL | IC50 (hERG ion channel): > 30000 nM | chromatographic logD [4]: 0.957 ± 0.046

N[C@@H]1C[C@H](C(=O)O)[C@@H](c2ccc(-c3cc(C(=O)O)cc4cc(-c5ccc(C(F)(F)F)cc5)ccc34)cc2)C1 [Compound 138, 4-(4-((1S,2S,4S)-4-Amino-2-carboxycyclopentyl)phenyl)-7-(4-(trifluoromethyl)phenyl)-2-naphthoic acid]
IC50 (mP2Y14R; [8]): 40.9 ± 6.3 nM | IC50 (hP2Y14R; [9]): 0.0496 ± 0.0135 µM

N[C@@H]1C[C@H](C(=O)O)C[C@H]1c1ccc(-c2cc(C(=O)O)cc3cc(-c4ccc(C(F)(F)F)cc4)ccc23)cc1 [Compound 140, 4-(4-((1S,2R,4R)-2-Amino-4-carboxycyclopentyl)phenyl)-7-(4-(trifluoromethyl)phenyl)-2-naphthoic acid]
IC50 (hP2Y14R; [7]): 0.165 ± 0.051 µM | Solubility (ug/mL) pH 4 [3]: 0.34 ± 0.07 ug/mL | Solubility (ug/mL) pH 7.4 [3]: 3.92 ± 0.10 ug/mL | Log D7.4 ([4]; HPLC-based lipophilicity): −0.478 ± 0.050
